In brackets after ≈: the same amount, converted by molar mass.
Columns and labels:
[1] = tested on: S. aureus VRSA; assay: MIC, broth microdilution, vancomycin-resistant S. aureus (VRSA); assay type: cell-based, Staphylococcus aureus; conditions: for MIC: Staphylococcus aureus VRSA, read-out: MIC; for MIC-fold improvement vs. vancomycin: VRSA, ratio of MIC of vancomycin and MIC of analogue
Method in brief: (§1)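 Following CLSI antimicrobial susceptibility standards, organisms were tested by broth microdilution. Controls comprised ultrapure water plus broth left uninoculated. For a single condition, 10 μM vancomycin (final) accompanied the analog or control agent.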

[2] = tested on: human T-lymphocyte (CEM) cells; assay: Cytostatic activity, CEM cell proliferation; assay type: cell-based; conditions: mean ± SD of three experiments; highest concentration tested 250 µM; 3 days; read-out: Toxicity (IC50) CEM
Method in brief: (§2)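 Suspensions (300,000–500,000 cells/mL) combined with equal volumes of diluted compound; 37°C; L1210 2 d / CEM 3 d / HeLa 4 d; counted by Coulter counter; IC50 vs untreated wells.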

[3] = tested on: E. faecalis VRE 29; assay: MIC, broth microdilution, vancomycin-resistant E. faecalis VRE 29 (VanA); assay type: cell-based, Enterococcus faecalis; conditions: for MIC: Enterococcus faecalis VRE 29 (vancomycin-resistant), read-out: MIC; for MIC-fold improvement vs. vancomycin: VRE 29, ratio of MIC of vancomycin and MIC of analogue
Method in brief: as §1

[4] = tested on: L1210, CEM and HeLa cell lines; assay: Cytostatic activity, average or summary over L1210, CEM and HeLa; assay type: cell-based; conditions: average of L1210, CEM and HeLa; read-out: Toxicity (IC50) Average
Method in brief: as §2

[5] = tested on: E. faecalis VRE 6; assay: MIC, broth microdilution, vancomycin-resistant E. faecalis VRE 6 (VanA); assay type: cell-based, Enterococcus faecalis; conditions: for MIC: Enterococcus faecalis VRE 6 (vancomycin-resistant), read-out: MIC; for MIC-fold improvement vs. vancomycin: VRE 6, ratio of MIC of vancomycin and MIC of analogue
Method in brief: as §1

[6] = tested on: S. aureus VSSA (ATCC 6538); assay: MIC, broth microdilution, vancomycin-sensitive S. aureus (VSSA/MSSA, ATCC 6538); assay type: cell-based, Staphylococcus aureus; conditions: for MIC: Staphylococcus aureus VSSA, read-out: MIC; for MIC-fold improvement vs. vancomycin: VSSA, ratio of MIC of vancomycin and MIC of analogue
Method in brief: as §1

[7] = tested on: human cervix carcinoma (HeLa) cells; assay: Cytostatic activity, HeLa cell proliferation; assay type: cell-based; conditions: mean ± SD of three experiments; highest concentration tested 250 µM; 4 days; read-out: Toxicity (IC50) HeLa
Method in brief: as §2

[8] = tested on: E. faecalis VRE 37; assay: MIC, broth microdilution, vancomycin-resistant E. faecalis VRE 37 (VanA); assay type: cell-based, Enterococcus faecalis; conditions: for MIC: Enterococcus faecalis VRE 37 (vancomycin-resistant), read-out: MIC; for MIC-fold improvement vs. vancomycin: VRE 37, ratio of MIC of vancomycin and MIC of analogue
Method in brief: as §1

[9] = tested on: MRSA KS1; assay: MIC, broth microdilution, MRSA KS1; assay type: cell-based, Staphylococcus aureus; conditions: for MIC-fold improvement vs. vancomycin: MRSA KS1, ratio of MIC of vancomycin and MIC of analogue; for MIC: Staphylococcus aureus MRSA KS1, read-out: MIC
Method in brief: as §1

[10] = tested on: E. faecalis VSE 1; assay: MIC, broth microdilution, vancomycin-sensitive E. faecalis (VSE 1); assay type: cell-based, Enterococcus faecalis; conditions: for MIC: Enterococcus faecalis VSE 1 (vancomycin-sensitive), read-out: MIC; for MIC-fold improvement vs. vancomycin: VSE 1, ratio of MIC of vancomycin and MIC of analogue
Method in brief: as §1

[11] = tested on: E. faecalis VRE 53; assay: MIC, broth microdilution, vancomycin-resistant E. faecalis VRE 53 (VanA); assay type: cell-based, Enterococcus faecalis; conditions: for MIC: Enterococcus faecalis VRE 53 (vancomycin-resistant), read-out: MIC; for MIC-fold improvement vs. vancomycin: VRE 53, ratio of MIC of vancomycin and MIC of analogue
Method in brief: as §1

[12] = tested on: S. aureus VISA/HIP5827; assay: MIC, broth microdilution, vancomycin-intermediate S. aureus VISA HIP5827; assay type: cell-based, Staphylococcus aureus; conditions: for MIC: Staphylococcus aureus VISA/HIP5827, read-out: MIC; for MIC-fold improvement vs. vancomycin: VISA/HIP5827, ratio of MIC of vancomycin and MIC of analogue
Method in brief: as §1

[13] = tested on: MRSA KS89; assay: MIC, broth microdilution, MRSA KS89; assay type: cell-based, Staphylococcus aureus; conditions: for MIC-fold improvement vs. vancomycin: MRSA KS8, ratio of MIC of vancomycin and MIC of analogue; for MIC: Staphylococcus aureus MRSA KS8, read-out: MIC
Method in brief: as §1

[14] = tested on: Murine leukemia (L1210) cells; assay: Cytostatic activity, L1210 cell proliferation; assay type: cell-based; conditions: mean ± SD of three experiments; highest concentration tested 250 µM; 2 days; read-out: Toxicity (IC50) L1210
Method in brief: as §2

[15] = tested on: MRSA KS6; assay: MIC, broth microdilution, MRSA KS6; assay type: cell-based, Staphylococcus aureus; conditions: for MIC-fold improvement vs. vancomycin: MRSA KS6, ratio of MIC of vancomycin and MIC of analogue; for MIC: Staphylococcus aureus MRSA KS6, read-out: MIC
Method in brief: as §1

[16] = tested on: MRSA KS2; assay: MIC, broth microdilution, MRSA KS2; assay type: cell-based, Staphylococcus aureus; conditions: for MIC-fold improvement vs. vancomycin: MRSA KS2, ratio of MIC of vancomycin and MIC of analogue; for MIC: Staphylococcus aureus MRSA KS2, read-out: MIC
Method in brief: as §1

| Compound | MIC [1] [µM] | MIC-fold improvement vs. vancomycin [1] | IC50 [2] [µM] | MIC [3] [µM] | MIC-fold improvement vs. vancomycin [3] | IC50 [4] [µM] | MIC [5] [µM] | MIC-fold improvement vs. vancomycin [5] | MIC [6] [µM] | MIC-fold improvement vs. vancomycin [6] | IC50 [7] [µM] | MIC [8] [µM] | MIC-fold improvement vs. vancomycin [9] | MIC [9] [µM] | MIC [10] [µM] | MIC-fold improvement vs. vancomycin [10] | MIC [11] [µM] | MIC-fold improvement vs. vancomycin [11] | MIC [12] [µM] | MIC-fold improvement vs. vancomycin [12] | other results |
| --- | --- | --- | --- | --- | --- | --- | --- | --- | --- | --- | --- | --- | --- | --- | --- | --- | --- | --- | --- | --- | --- |
| CNC(CC(C)C)C(=O)NC1C(=O)NC(CC(N)=O)C(=O)NC2C(=O)NC3C(=O)NC(C(=O)NC(C(=O)NCCCNC(=O)c4ccc(-c5ccccc5)cc4)c4cc(O)cc(O)c4-c4cc3ccc4O)C(O)c3ccc(c(Cl)c3)Oc3cc2cc(c3OC2OC(CO)C(O)C(O)C2OC2CC(C)(N)C(O)C(C)O2)Oc2ccc(cc2Cl)C1O (stereo not drawn) [Vanc-33] | 0.78 (≈ 1.31 µg/mL) | 128 | 78 ± 16 | 6.25 (≈ 10.5 µg/mL) | 64 | 73 | 1.56 (≈ 2.63 µg/mL) | 128 | 0.20 (≈ 0.337 µg/mL) | 4 | 84 ± 8 | 12.5 (≈ 21.1 µg/mL) | 2 | 0.39 (≈ 0.657 µg/mL) | 0.20 (≈ 0.337 µg/mL) | 8 | 25 (≈ 42.1 µg/mL) | 16 | 0.20 (≈ 0.337 µg/mL) | 32 | MIC-fold improvement vs. vancomycin [13]: 2; MIC [13]: 0.39 µM (≈ 0.657 µg/mL); IC50 [14]: 57 ± 20 µM; MIC-fold improvement vs. vancomycin [15]: 2; MIC [15]: 0.39 µM (≈ 0.657 µg/mL); MIC-fold improvement vs. vancomycin [16]: 4; MIC [16]: 0.20 µM (≈ 0.337 µg/mL) |
| CNC(CC(C)C)C(=O)NC1C(=O)NC(CC(N)=O)C(=O)NC2C(=O)NC3C(=O)NC(C(=O)NC(C(=O)NCCCNC(=O)c4ccc(-c5ccc(-c6ccccc6)cc5)cc4)c4cc(O)cc(O)c4-c4cc3ccc4O)C(O)c3ccc(c(Cl)c3)Oc3cc2cc(c3OC2OC(CO)C(O)C(O)C2OC2CC(C)(N)C(O)C(C)O2)Oc2ccc(cc2Cl)C1O (stereo not drawn) [Vanc-35] | 1.56 (≈ 2.75 µg/mL) | 64 | 0.98 ± 0.06 | 1.56 (≈ 2.75 µg/mL) | 256 | 7 | 0.39 (≈ 0.687 µg/mL) | 513 | 0.05 (≈ 0.0881 µg/mL) | 16 | 17 ± 2 | 1.56 (≈ 2.75 µg/mL) | 1 | 0.78 (≈ 1.37 µg/mL) | 0.20 (≈ 0.352 µg/mL) | 8 | 6.25 (≈ 11 µg/mL) | 64 | 0.05 (≈ 0.0881 µg/mL) | 128 | MIC-fold improvement vs. vancomycin [8]: 256; MIC-fold improvement vs. vancomycin [13]: 4; MIC [13]: 0.20 µM (≈ 0.352 µg/mL); IC50 [14]: 4.1 ± 0.5 µM; MIC-fold improvement vs. vancomycin [15]: 4; MIC [15]: 0.20 µM (≈ 0.352 µg/mL); MIC-fold improvement vs. vancomycin [16]: 2; MIC [16]: 0.39 µM (≈ 0.687 µg/mL) |
| CCCCC#Cc1ccc(NC(=O)CNC(=O)[C@H]2NC(=O)[C@H]3NC(=O)[C@H](NC(=O)[C@@H]4NC(=O)[C@H](CC(N)=O)NC(=O)[C@H](NC(=O)[C@@H](CC(C)C)NC)[C@H](O)c5ccc(c(Cl)c5)Oc5cc4cc(c5O[C@@H]4O[C@H](CO)[C@@H](O)[C@H](O)[C@H]4O[C@H]4C[C@](C)(N)[C@H](O)[C@H](C)O4)Oc4ccc(cc4Cl)[C@H]3O)c3ccc(O)c(c3)-c3c(O)cc(O)cc32)cc1 [Vanc-37] | 1.56 (≈ 2.59 µg/mL) | 64 | 24 ± 4 | 6.25 (≈ 10.4 µg/mL) | 64 | 52 | 1.56 (≈ 2.59 µg/mL) | 128 | 0.10 (≈ 0.166 µg/mL) | 8 | 118 ± 10 | 1.56 (≈ 2.59 µg/mL) | 4 | 0.20 (≈ 0.332 µg/mL) | 0.20 (≈ 0.332 µg/mL) | 8 | 3.13 (≈ 5.2 µg/mL) | 128 | 0.10 (≈ 0.166 µg/mL) | 64 | MIC-fold improvement vs. vancomycin [8]: 256; MIC-fold improvement vs. vancomycin [13]: 4; MIC [13]: 0.20 µM (≈ 0.332 µg/mL); IC50 [14]: 14 ± 7 µM; MIC-fold improvement vs. vancomycin [15]: 8; MIC [15]: 0.10 µM (≈ 0.166 µg/mL); MIC-fold improvement vs. vancomycin [16]: 4; MIC [16]: 0.20 µM (≈ 0.332 µg/mL) |
| CN[C@H](CC(C)C)C(=O)N[C@H]1C(=O)N[C@@H](CC(N)=O)C(=O)N[C@H]2C(=O)N[C@H]3C(=O)N[C@H](C(=O)N[C@H](C(=O)NCC(=O)Nc4ccc(C#Cc5ccccc5)cc4)c4cc(O)cc(O)c4-c4cc3ccc4O)[C@H](O)c3ccc(c(Cl)c3)Oc3cc2cc(c3O[C@@H]2O[C@H](CO)[C@@H](O)[C@H](O)[C@H]2O[C@H]2C[C@](C)(N)[C@H](O)[C@H](C)O2)Oc2ccc(cc2Cl)[C@H]1O [Vanc-38] | 0.78 (≈ 1.31 µg/mL) | 128 | 4.4 ± 0.5 | 1.56 (≈ 2.62 µg/mL) | 256 | 12 | 0.39 (≈ 0.656 µg/mL) | 513 | 0.05 (≈ 0.0841 µg/mL) | 16 | 24 ± 1 | 3.13 (≈ 5.26 µg/mL) | 4 | 0.20 (≈ 0.336 µg/mL) | 0.20 (≈ 0.336 µg/mL) | 8 | 3.13 (≈ 5.26 µg/mL) | 128 | 0.05 (≈ 0.0841 µg/mL) | 128 | MIC-fold improvement vs. vancomycin [8]: 128; MIC-fold improvement vs. vancomycin [13]: 4; MIC [13]: 0.20 µM (≈ 0.336 µg/mL); IC50 [14]: 8 ± 3.1 µM; MIC-fold improvement vs. vancomycin [15]: 4; MIC [15]: 0.20 µM (≈ 0.336 µg/mL); MIC-fold improvement vs. vancomycin [16]: 4; MIC [16]: 0.20 µM (≈ 0.336 µg/mL) |
| CN[C@H](CC(C)C)C(=O)N[C@H]1C(=O)N[C@@H](CC(N)=O)C(=O)N[C@H]2C(=O)N[C@H]3C(=O)N[C@H](C(=O)N[C@H](C(=O)NCC(=O)Nc4ccc(C(F)(F)F)cc4)c4cc(O)cc(O)c4-c4cc3ccc4O)[C@H](O)c3ccc(c(Cl)c3)Oc3cc2cc(c3O[C@@H]2O[C@H](CO)[C@@H](O)[C@H](O)[C@H]2O[C@H]2C[C@](C)(N)[C@H](O)[C@H](C)O2)Oc2ccc(cc2Cl)[C@H]1O [Vanc-40] | 3.13 (≈ 5.16 µg/mL) | 32 | > 250 | 12.5 (≈ 20.6 µg/mL) | 32 | > 250 | 6.25 (≈ 10.3 µg/mL) | 32 | 0.78 (≈ 1.29 µg/mL) | 1 | > 250 | 12.5 (≈ 20.6 µg/mL) | 2 | 0.39 (≈ 0.643 µg/mL) | 0.78 (≈ 1.29 µg/mL) | 2 | 25 (≈ 41.2 µg/mL) | 16 | 1.56 (≈ 2.57 µg/mL) | 4 | MIC-fold improvement vs. vancomycin [13]: 2; MIC [13]: 0.39 µM (≈ 0.643 µg/mL); IC50 [14]: > 250 µM; MIC-fold improvement vs. vancomycin [15]: 2; MIC [15]: 0.39 µM (≈ 0.643 µg/mL); MIC-fold improvement vs. vancomycin [16]: 2; MIC [16]: 0.39 µM (≈ 0.643 µg/mL) |

Reference: article PMC6001238, “Iterative Chemical Engineering of Vancomycin Leads to Novel Vancomycin Analogs With a High in Vitro Therapeutic Index” (Frontiers in Microbiology, 2018)
